Test results reported in patent US11324832B2, “Tripartite modulators of endosomal G protein-coupled receptors” (Endosome Therapeutics, Inc., priority 2015, dated 2022).
Where a SMILES comes first, the peptide text is derived from it. [ ]: non-standard residue; d: D form. The star is where a group is joined. X1 = CC(C)CCC[C@@H](C)[C@H]1CC[C@H]2[C@@H]3CC[C@H]4C[C@@H](O*)CC[C@]4(C)[C@H]3CC[C@]12C; PEG4 = NCCOCCOCCOCCOCCC(=O)O; PEG3 = NCCOCCOCCOCCC(=O)O

What was measured:
[1] = Stability in the spinal cord after intrathecal injection to mice; format: in vivo, mouse; details: 10 μM, 5 μl, spinal cord after 3 hours
Protocol: To assess stability in cerebrospinal fluid, spantide or Compound 1 (10 μg/ml) was incubated in human cerebrospinal fluid (0-4 h, 37° C.), and then snap frozen. Proteins were precipitated using ACN. To assess stability in the spinal cord, spantide or Compound 1 was injected intrathecally to mice (10 μM, 5 μl, L3/L4). After 3 hours, a spinal cord segment 5 mm on either side the injection site was removed and snap frozen. Tissues were crushed with a glass rod in a mixture of methanol (30 μl) and EDTA/KF (60 μl, 0.1 M EDTA, 4 g/l KF), vortexed and centrifuged to remove lipids. Peptides were extracted from the pellet with 0.5% formic acid in 75% ACN/H2O (100 μl). Samples were analyzed assayed by LC/MS using a Waters Xevo TQ or TQD triple quadrupole mass spectrometer coupled to a Waters UPLC. Peptides were separated by HPLC (Supelco Ascentis Express Peptide ES C18 column, 50×2.1 mm, 2.7 μm) with 0.05% formic acid in H2O and ACN as solvents. Peptides were quantified by comparison to calibration standards (50-50,000 ng/ml).

[2] = target: T1, β2-adrenergic receptor (Homo sapiens, UniProt P07550); experiment: FRET nuclear ERK biosensor, isoprenaline-induced activation in HEK293 cells; format: cell-based; details: selectivity control, endogenous receptor
T1 construct: endogenous in cells; host or cells: HEK293
Protocol: (§1) HEK293 cells were transfected with 55 ng/well rat NK1R with N-terminal HA. 11 epitope tag (HA-NK1R) or CLR plus RAMP1 and 40 ng/well FRET biosensors. FRET was assessed 48 h after transfection, following serum restriction (0.5% FBS overnight). For experiments using clathrin or dynamin siRNA, cells were transfected with 55 ng/well rat HA-NK1R, 40 ng/well FRET biosensor and 25 nM/well scrambled, clathrin or dynamin ON-TARGETplus SMARTpool siRNA (GE Dharmacon). FRET was assessed 72 h after transfection, following serum restriction (0.5% FBS overnight). Cells were equilibrated in HBSS at 37° C. and FRET was analyzed using a GE Healthcare INCell 2000 Analyzer. For GFP/RFP emission ratio analysis, cells were sequentially excited using a FITC filter (490/20) with emission measured using dsRed (605/52) and FITC (525/36) filters, and a polychroic optimized for the FITC/dsRed filter pair (Quad4). For CFP/YFP emission ratio analysis, cells were sequentially excited using a CFP filter (430/24) with emission measured using YFP (535/30) and CFP (470/24) filters, and a polychroic optimized for the CFP/YFP filter pair (Quad3). Cells were imaged every 1 min, allowing image capture of 14 wells per minute. Baseline emission ratio images were captured for 4 min. […] Data were analyzed as described and expressed as emission ratios relative to baseline for each cell (F/F0). […]

[3] = target: T2, NK1R (Rattus norvegicus, UniProt P14600); experiment: SP-stimulated Ca2+ signaling in HEK-NK1R cells, antagonist mode; format: cell-based; parameters: Full length and truncated 6312 rat HA-NK1R have been described; expressed in transfected cells; host or cells: HEK293 (transient); details: SP 3 nM (EC80), HEK-NK1R cells, 30 min pre-incubation; read-out: pIC50, antagonism of SP-stimulated Ca^2+ signaling (converted)
Protocol: [Ca^2+]i was measured as described (Jensen, D. D. et al., J Biol Chem, 2014, 289, 20283-20294). HEK293 cells transiently expressing HA-NK1R or HA-CLR/Myc-RAMP1 were loaded with Fura2-AM (2 μM).

[4] = target: T3, CLR plus RAMP1 (Homo sapiens, UniProt O60894+Q16602); experiment: FRET ERK biosensors in HEK293 cells expressing CLR plus RAMP1; format: cell-based; details: endocytic inhibitor plus CGRP
T3 construct: expressed in transfected cells; host or cells: HEK293 (transient)
Protocol: as §1

[5] = system: capsaicin-evoked mechanical hyperalgesia in mice; details: mouse, in vivo
Protocol: To evaluate the importance of NK1R, clathrin and dynamin, mice (C57BL/6, male, 6-10 weeks) were injected intrathecally (L3/L4) with vehicle, NK1R antagonist SR140,333, Dy4, Dy4 inact, PS2 or PS2 inact. After 30 min, intraplantar injections of vehicle or capsaicin were made into the left hindpaw. Mechanical hyperalgesia was measured by stimulation of the plantar surface of the left and right paws with von Frey filaments, and inflammatory edema was assessed by measuring left paw thickness with calipers.
Mice were acclimatized to the experimental apparatus and environment for 1-2 h on 2 successive days before experiments. Mechanical hyperalgesia was assessed by paw withdrawal to stimulation of the plantar surface of the hind-paw with graded von Frey filaments. On the day before the study, von Frey scores were measured in triplicate to establish a baseline for each animal. To assess edema of the paw, hindpaw thickness was measured using digital calipers before and after treatments. […] Capsaicin (5 μg), Complete Freund's Adjuvant (CFA, 2 mg/ml), or vehicle (capsaicin, 20% ethanol, 10% Tween 80, 70% saline; CFA, saline) was injected subcutaneously into the plantar surface of the left hindpaw (10 μl). von Frey scores (left and right paws) and paw thickness (left paw) were measured for 30-240 min after capsaicin, and 36-40 h after injection of CFA. […]

[6] = target: T2, NK1R; experiment: NK1R endocytosis in rat spinal cord slices; format: cell-based; details: Dy4 30 μM; SP 1 μM, 5 min
[7] = Solubility in low DMSO for electrophysiology; format: physicochemical; details: low concentrations of DMSO required for electrophysiology
Protocol: Slices of rat spinal cord were transferred to a recording chamber and superfused with normal ACSF (2 ml·min^−1, 36° C.). […] PS2 was not soluble in the low concentrations of DMSO required for electrophysiology. Large, NKiR-positive, presumed nociceptive lamina I neurons were visually identified as described (Imlach, W. L., et al., Molecular Pharmacology, 2015, 88, 460-428). Spontaneous currents were recorded in cell-attached configuration (Multiclamp 700B, Molecular Devices, Sunnyvale, Calif.), sampled at 10 kHz, high pass filtered at 1 Hz, and capacitatively coupled action potential events were analyzed using Axograph X, V 1.4.4 (Axograph). […] Recordings were sampled at 10 kHz and filtered with a high pass filter at 1 Hz and firing rate was measured in two-minute interval bins. […] The firing time was determined as the duration of the response to last action potential. To assess synaptic transmission, whole-cell configuration recordings were made under control conditions or after exposure to Dy4 or Dy4 inact; a bipolar stimulating electrode was placed at the dorsal root entry zone, and electrically-evoked excitatory postsynaptic currents recorded as described (Imlach, W. L., et al., Molecular Pharmacology, 2015, 88, 460-428).

T2 sequence (P14600 whole entry, the tested form may be a part): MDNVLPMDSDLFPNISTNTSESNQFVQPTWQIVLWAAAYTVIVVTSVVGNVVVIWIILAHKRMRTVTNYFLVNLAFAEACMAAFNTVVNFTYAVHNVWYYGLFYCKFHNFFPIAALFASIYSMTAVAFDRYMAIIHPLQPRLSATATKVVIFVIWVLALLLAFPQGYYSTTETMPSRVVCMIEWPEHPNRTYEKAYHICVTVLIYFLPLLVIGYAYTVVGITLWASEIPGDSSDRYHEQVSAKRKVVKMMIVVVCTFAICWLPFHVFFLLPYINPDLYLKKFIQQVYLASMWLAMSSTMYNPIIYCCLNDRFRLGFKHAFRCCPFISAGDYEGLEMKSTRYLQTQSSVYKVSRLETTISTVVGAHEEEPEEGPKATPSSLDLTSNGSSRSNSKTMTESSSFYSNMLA
T3 sequence (Q16602 23-461): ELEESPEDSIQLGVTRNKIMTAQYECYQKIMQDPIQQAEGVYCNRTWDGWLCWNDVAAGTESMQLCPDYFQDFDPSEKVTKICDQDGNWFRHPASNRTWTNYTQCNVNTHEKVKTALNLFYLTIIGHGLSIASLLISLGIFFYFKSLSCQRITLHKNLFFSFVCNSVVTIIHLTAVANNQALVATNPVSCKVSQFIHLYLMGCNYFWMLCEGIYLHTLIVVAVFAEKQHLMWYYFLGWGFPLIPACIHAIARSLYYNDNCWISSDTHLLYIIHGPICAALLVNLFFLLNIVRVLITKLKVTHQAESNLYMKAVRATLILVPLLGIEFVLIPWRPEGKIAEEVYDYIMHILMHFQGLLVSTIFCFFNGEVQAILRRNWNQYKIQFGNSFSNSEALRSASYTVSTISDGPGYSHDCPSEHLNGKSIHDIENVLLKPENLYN
T3 sequence (O60894 27-148): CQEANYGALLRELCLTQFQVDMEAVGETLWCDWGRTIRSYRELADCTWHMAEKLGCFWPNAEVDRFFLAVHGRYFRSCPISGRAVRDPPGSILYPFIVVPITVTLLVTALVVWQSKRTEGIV
T1 sequence (P07550 whole entry): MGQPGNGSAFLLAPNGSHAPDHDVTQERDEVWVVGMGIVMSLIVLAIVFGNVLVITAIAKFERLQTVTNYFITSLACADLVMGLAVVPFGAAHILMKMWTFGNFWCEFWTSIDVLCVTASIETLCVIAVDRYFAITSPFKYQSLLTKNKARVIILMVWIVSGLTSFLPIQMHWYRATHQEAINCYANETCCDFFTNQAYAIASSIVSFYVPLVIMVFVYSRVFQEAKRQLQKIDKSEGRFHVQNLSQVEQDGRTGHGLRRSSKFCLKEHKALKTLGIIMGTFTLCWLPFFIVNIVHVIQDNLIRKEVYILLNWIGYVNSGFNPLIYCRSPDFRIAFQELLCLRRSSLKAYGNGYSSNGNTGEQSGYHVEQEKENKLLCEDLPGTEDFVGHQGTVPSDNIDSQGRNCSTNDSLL

In the case of CC(=O)N[C@@H](CC(=O)O[C@H]1CC[C@@]2(C)[C@@H](CC[C@@H]3[C@@H]2CC[C@]2(C)[C@@H]([C@H](C)CCCC(C)C)CC[C@@H]32)C1)C(=O)NCCOCCOCCOCCOCCC(=O)NCCOCCOCCOCCC(=O)NCCOCCOCCOCCOCCC(=O)N[C@H](CCCNC(=N)N)C(=O)N1CCC[C@H]1C(=O)N[C@@H](CCCCN)C(=O)N1CCC[C@H]1C(=O)N[C@@H](CCC(N)=O)C(=O)N[C@@H](CCC(N)=O)C(=O)N[C@H](Cc1c[nH]c2ccccc12)C(=O)N[C@@H](Cc1ccccc1)C(=O)N[C@H](Cc1c[nH]c2ccccc12)C(=O)N[C@@H](CC(C)C)C(=O)N[C@@H](CC(C)C)C(N)=O [Compound 1] (Ac-D(X1)[PEG4][PEG3][PEG4][dR]PKPQQ[dW]F[dW]LL-NH2), the “stability after intrathecal injection to mice” value [1] is reported as “stable”, the “effect on isoprenaline-induced activation of nuclear ERK” value [2] is reported as “did not affect” and the IC50 [3] is reported as 3.63 nM.
With O=C(N/N=C/c1cc(O)c(O)cc1O)c1cc2ccccc2cc1O [Dy4] the “effect on CGRP activation of cytosolic ERK” value [4] was “prevented activation of nuclear but not cytosolic ERK”, the “effect on CGRP activation of nuclear ERK” value [4] was “prevented activation of nuclear but not cytosolic ERK” and the “effect on paw withdrawal responses of the uninjected right hind paw” value [5] was “did not affect”. For the same compound, the “effect on SP-stimulated NK1R endocytosis in spinal cord slices” value [6] was “prevented”.
With O=C1NC(=NS(=O)(=O)c2cccc3ccccc23)S/C1=C\c1ccc(Br)cc1 [PS2] the solubility [7] was “not soluble”.
